Measured values from ChEMBL document CHEMBL6153170 (J Med Chem, 2025).
In brackets after ≈: the same amount, converted by molar mass. Activity calls are given as the source filed them. No cut-off for these calls is given here.

Experiments:
B16-F10 [1] = test: cells; conditions: Mus musculus, B16-F10, 48 h
[2] = Cmax in male Sprague-Dawley rat at 10 mg/kg, po measured after 48 hrs by triple quadrupole mass spectrometric analysis; assay type: ADME, organism-based; conditions: in vivo
[3] = Toxicity in C57 mouse assessed as myelosuppression by measuring MPV level at 20 mg/kg/day, IG administered for 14 days by heat map analysis; assay type: organism-based; conditions: in vivo, po, 336 h, time 14 day
[4] = Half-life in male Sprague-Dawley rat at 2 mg/kg, iv measured after 48 hrs by triple quadrupole mass spectrometric analysis; assay type: ADME, organism-based; conditions: in vivo
[5] = AUC (0 to infinity) in male Sprague-Dawley rat at 10 mg/kg, po measured after 48 hrs by triple quadrupole mass spectrometric analysis; assay type: ADME, organism-based; conditions: in vivo
[6] = Toxicity in C57 mouse assessed as myelosuppression by measuring PCT level at 20 mg/kg/day, IG administered for 14 days by heat map analysis; assay type: organism-based; conditions: in vivo, po, 336 h, time 14 day
[7] = MRT (0 to t) in male Sprague-Dawley rat at 2 mg/kg, iv measured after 48 hrs by triple quadrupole mass spectrometric analysis; assay type: ADME, organism-based; conditions: in vivo
B16-F10 [8] = test: Antitumor immunity activity against mouse B16-F10 cells implanted in C57BL/6 mouse model assessed as CD3+ CD8+ T cell percentage in tumor at 20 mg/kg/day, ip administered for 14 days by flow cytometric analysis (reference value: 0.52 %); assay type: functional; conditions: time 14 day
[9] = Toxicity in C57 mouse assessed as myelosuppression by measuring MCH level at 20 mg/kg/day, IG administered for 14 days by heat map analysis; assay type: organism-based; conditions: in vivo, po, 336 h, time 14 day
[10] = AUC (0 to infinity) in male Sprague-Dawley rat at 2 mg/kg, iv measured after 48 hrs by triple quadrupole mass spectrometric analysis; assay type: ADME, organism-based; conditions: in vivo
[11] = Aqueous solubility of compound incubated for 24 hrs by miniaturized shake flask based HPLC analysis; assay type: physicochemical; conditions: buffer
[12] = Half-life in male Sprague-Dawley rat at 10 mg/kg, po measured after 48 hrs by triple quadrupole mass spectrometric analysis; assay type: ADME, organism-based; conditions: in vivo
[13] = Apparent clearance during terminal phase in male Sprague-Dawley rat at 2 mg/kg, iv measured after 48 hrs by triple quadrupole mass spectrometric analysis; assay type: ADME, organism-based; conditions: in vivo
Histone deacetylase 8 = target: T1, Histone deacetylase 8 (Homo sapiens, UniProt Q9BY41); test: Inhibition of C-terminal His-tagged recombinant full length human HDAC8 extracted from baculovirus infected Sf9 insect cells preincubated for 5 mins followed by substrate addition and measured after 30 mins by fluorescence microplate reader analysis
T1 sequence (Q9BY41 whole entry): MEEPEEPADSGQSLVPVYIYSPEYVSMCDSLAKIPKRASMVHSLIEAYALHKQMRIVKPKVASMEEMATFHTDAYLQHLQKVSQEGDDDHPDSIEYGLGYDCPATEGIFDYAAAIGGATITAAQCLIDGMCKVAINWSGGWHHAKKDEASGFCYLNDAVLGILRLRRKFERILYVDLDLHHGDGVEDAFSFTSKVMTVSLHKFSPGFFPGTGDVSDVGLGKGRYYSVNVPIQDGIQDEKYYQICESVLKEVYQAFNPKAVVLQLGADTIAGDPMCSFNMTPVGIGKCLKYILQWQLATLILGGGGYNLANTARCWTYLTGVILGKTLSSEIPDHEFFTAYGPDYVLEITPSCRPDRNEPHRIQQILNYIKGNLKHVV

[14] = Toxicity in C57BL/6 mouse model implanted with mouse B16-F10 cells assessed as morphological changes in liver at 20 mg/kg/day, ip administered for 14 days by H and E staining based analysis; assay type: organism-based; conditions: in vivo, 336 h, time 14 day
B16-F10 [15] = test: Antitumor immunity activity against mouse B16-F10 cells implanted in C57BL/6 mouse model assessed as CD3+ CD4+ T cell percentage in tumor at 20 mg/kg/day, ip co-administered with ACY-1215 for 14 days by flow cytometric analysis (reference value: 0.095 %); assay type: functional; conditions: time 14 day
B16-F10 [16] = test: Effect on Histone H3 protein level in mouse B16-F10 cells at 0.1 to 2 uM incubated for 12 hrs by Western blot analysis; assay type: functional, cell-based; conditions: dose 0.1-2 µM
B16-F10 [17] = test: Antitumor activity against mouse B16-F10 cells implanted in C57BL/6 mouse model assessed as tumor growth inhibition at 20 mg/kg/day, ip co-administered with ACY-1215 for 14 days relative to control; assay type: functional; conditions: B16-F10, 336 h, time 14 day, read-out: TGI
[18] = MRT (0 to t) in male Sprague-Dawley rat at 10 mg/kg, po measured after 48 hrs by triple quadrupole mass spectrometric analysis; assay type: ADME, organism-based; conditions: in vivo
[19] = target: T2, Histone deacetylase 3 (Mus musculus) (UniProt O88895); test: Inhibition of HDAC3 in mouse B16-F10 cells assessed as increase in acetylated H3 level incubated for 12 hrs by Western blot analysis; assay type: cell-based
T2 sequence (whole entry): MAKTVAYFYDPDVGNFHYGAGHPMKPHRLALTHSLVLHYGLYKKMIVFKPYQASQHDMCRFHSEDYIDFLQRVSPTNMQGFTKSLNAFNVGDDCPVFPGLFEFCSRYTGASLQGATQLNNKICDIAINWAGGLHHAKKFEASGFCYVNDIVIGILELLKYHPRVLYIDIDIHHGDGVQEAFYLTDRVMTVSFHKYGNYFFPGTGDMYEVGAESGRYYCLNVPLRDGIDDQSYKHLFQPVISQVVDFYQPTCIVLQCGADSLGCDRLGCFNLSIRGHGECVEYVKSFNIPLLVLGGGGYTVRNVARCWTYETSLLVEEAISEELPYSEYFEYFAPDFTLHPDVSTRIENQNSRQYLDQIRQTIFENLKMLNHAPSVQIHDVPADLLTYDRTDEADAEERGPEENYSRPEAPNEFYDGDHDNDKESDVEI

B16-F10 [20] = test: Effect on HDAC6 protein level in mouse B16-F10 cells at 0.1 to 2 uM incubated for 12 hrs by Western blot analysis; assay type: functional, cell-based; conditions: dose 0.1-2 µM
[21] = target: Programmed cell death 1 ligand 1 (Mus musculus, UniProt Q9EP73); test: Binding affinity to C-terminal 6His-tagged recombinant mouse PD-L1 (1 to 238 residues) expressed in HEK293 cells assessed as dissociation constant by SPR analysis
Chain of Programmed cell death 1 ligand 1 (Q9EP73 whole entry, the tested form may be a part): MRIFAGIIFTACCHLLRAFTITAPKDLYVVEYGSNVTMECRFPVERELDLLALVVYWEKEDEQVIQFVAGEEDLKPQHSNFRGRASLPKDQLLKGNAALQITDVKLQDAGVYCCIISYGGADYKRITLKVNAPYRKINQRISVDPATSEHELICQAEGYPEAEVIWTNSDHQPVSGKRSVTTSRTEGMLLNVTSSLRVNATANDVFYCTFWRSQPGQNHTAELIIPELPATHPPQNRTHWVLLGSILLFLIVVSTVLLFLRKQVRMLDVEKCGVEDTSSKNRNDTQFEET

IC50 (B16-F10 [1]): 8.1 µM | Cmax [2]: 194 ng/mL | half-life [4]: 6.9 h | AUC [5]: 1076.36 ng·h/mL | MRT last at 48 h [7]: 7.06 h | AUC(0-inf) [10]: 1290 ng·h/mL | solubility thermodynamic at 24 h [11]: 57 µg/mL (≈ 127 µM) | half-life [12]: 13.2 h | CLz/F [13]: 16.2 mL/min/kg | IC50 (Histone deacetylase 8): > 10 µM | MRT last at 48 h [18]: 15.3 h | inhibition [19]: inactive
Structure (SMILES): COc1nc(-c2cccc(-c3ccccc3)c2C)ccc1CNCCCCCCC(=O)NO
Activity [3]: Non-toxic | Activity [6]: Non-toxic | Activity (B16-F10 [8]): 11.19% | Activity [9]: Non-toxic | Activity [14]: Non-toxic | Activity (B16-F10 [15]): 7.72% | Activity (B16-F10 [16]): inactive | inhibition in vivo at 20 mg/kg/day (B16-F10 [17]): 53.9% | Activity (B16-F10 [20]): inactive | Kd [21]: 0.0553 µM
